Assay [1] can be described thus: Luminescence Cell-Based Dose Retest to Confirm Inhibitors of Cancer Stem Cells. [Related pubchem assays (depositor defined):AID2717, AID2721]. Type of assay: functional. Particulars: Homo sapiens.
In assay [2] the target is Intestinal-type alkaline phosphatase (Homo sapiens, UniProt P09923). As to the kind of experiment: inhibition of human intestinal alkaline phosphatase – biochemical, dose response (AID 488876). Type of assay: functional.
In another assay the target is Large T antigen (Simian virus 40, UniProt P03070). Type of assay: functional, Betapolyomavirus macacae.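 Also: Confirmatory-stage PubChem screen for compounds that inhibit SV40 T antigen.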
Assay [3] addresses Glutathione-S-transferase (Schistosoma japonicum, UniProt Q26513). Kind of assay: biotin-GST/anti-GST TR-FRET signal inhibitors, dose response, artefact control for Vif-APOBEC3G degradation inhibitor project, biochemical (AID 1117362). Type of assay: functional.
In assay [4] the target is T1, Dual specificity protein phosphatase 6 (Rattus norvegicus, UniProt Q64346).
T1 sequence (Q64346 whole entry): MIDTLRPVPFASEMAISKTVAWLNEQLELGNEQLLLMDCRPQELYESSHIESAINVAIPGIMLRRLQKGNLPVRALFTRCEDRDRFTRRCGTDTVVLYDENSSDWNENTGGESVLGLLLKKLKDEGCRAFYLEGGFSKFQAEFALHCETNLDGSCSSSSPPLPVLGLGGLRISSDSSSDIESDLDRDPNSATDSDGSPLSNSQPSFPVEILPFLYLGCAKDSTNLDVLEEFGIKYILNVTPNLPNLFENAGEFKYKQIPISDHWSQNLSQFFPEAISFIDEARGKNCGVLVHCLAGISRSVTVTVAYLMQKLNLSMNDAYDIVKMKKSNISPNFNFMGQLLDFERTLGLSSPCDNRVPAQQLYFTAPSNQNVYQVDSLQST

Assay [5] deals with T1, Dual specificity protein phosphatase 6. It counts as functional.
Assay [6] addresses T2, Zinc finger protein mex-5 (Caenorhabditis elegans, UniProt Q9XUB2).
T2 sequence (Q9XUB2 whole entry): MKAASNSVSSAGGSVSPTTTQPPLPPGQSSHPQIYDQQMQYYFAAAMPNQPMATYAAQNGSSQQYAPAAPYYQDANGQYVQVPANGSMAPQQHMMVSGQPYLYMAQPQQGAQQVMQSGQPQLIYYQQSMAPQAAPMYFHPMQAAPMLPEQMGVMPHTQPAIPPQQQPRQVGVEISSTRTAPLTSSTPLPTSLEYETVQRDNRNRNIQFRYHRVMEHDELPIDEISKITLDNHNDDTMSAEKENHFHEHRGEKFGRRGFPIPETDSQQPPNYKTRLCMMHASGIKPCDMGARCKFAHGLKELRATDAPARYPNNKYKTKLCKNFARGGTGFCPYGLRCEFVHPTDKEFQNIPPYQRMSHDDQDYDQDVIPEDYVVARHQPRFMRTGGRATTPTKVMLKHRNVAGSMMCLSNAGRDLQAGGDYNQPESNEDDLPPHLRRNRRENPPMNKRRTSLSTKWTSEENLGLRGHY
Kind of assay: MEX-5/TCR-2 RNA interaction inhibitors, dose response, biochemical, C. elegans, fluorescence polarization (AID 1960).

For assay [7], the target named is Serine/threonine-protein kinase TBK1 (Homo sapiens, UniProt Q9UHD2). Kind of assay: Navigating the Kinome. Panel member name: TBK1. Type of assay: functional.
For assay [8], the target named is Macrophage-stimulating protein receptor (Homo sapiens, UniProt Q04912). As to the kind of experiment: Navigating the Kinome. Panel member name: MST1R. Type of assay: functional.
The target in assay [9] is Tyrosine-protein kinase Lck (Homo sapiens, UniProt P06239). It counts as functional.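 Also: lck was assayed as one member of a kinase panel.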
Chain of Tyrosine-protein kinase Lck (P06239 whole entry): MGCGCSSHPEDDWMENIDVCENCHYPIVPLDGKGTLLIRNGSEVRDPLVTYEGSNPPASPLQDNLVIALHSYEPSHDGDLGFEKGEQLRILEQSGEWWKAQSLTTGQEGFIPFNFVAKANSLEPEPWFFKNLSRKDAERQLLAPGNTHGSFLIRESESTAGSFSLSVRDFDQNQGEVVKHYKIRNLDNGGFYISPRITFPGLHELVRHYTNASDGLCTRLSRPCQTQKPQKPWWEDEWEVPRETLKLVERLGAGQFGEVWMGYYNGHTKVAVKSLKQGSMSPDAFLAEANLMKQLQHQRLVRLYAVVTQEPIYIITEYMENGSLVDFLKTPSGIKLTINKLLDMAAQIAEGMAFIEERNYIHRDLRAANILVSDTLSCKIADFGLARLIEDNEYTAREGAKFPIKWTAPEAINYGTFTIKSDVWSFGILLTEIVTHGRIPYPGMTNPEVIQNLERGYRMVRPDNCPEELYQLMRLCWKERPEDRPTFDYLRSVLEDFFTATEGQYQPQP
The target in assay [10] is Fibroblast growth factor receptor 1 (Homo sapiens, UniProt P11362). It counts as functional.
In assay [11] the target is Platelet-derived growth factor receptor beta (Homo sapiens, UniProt P09619). It counts as functional.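 Also: value comes from a kinome panel, with PDGFRB tested as one panel member.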
Chain of Platelet-derived growth factor receptor beta (P09619 whole entry): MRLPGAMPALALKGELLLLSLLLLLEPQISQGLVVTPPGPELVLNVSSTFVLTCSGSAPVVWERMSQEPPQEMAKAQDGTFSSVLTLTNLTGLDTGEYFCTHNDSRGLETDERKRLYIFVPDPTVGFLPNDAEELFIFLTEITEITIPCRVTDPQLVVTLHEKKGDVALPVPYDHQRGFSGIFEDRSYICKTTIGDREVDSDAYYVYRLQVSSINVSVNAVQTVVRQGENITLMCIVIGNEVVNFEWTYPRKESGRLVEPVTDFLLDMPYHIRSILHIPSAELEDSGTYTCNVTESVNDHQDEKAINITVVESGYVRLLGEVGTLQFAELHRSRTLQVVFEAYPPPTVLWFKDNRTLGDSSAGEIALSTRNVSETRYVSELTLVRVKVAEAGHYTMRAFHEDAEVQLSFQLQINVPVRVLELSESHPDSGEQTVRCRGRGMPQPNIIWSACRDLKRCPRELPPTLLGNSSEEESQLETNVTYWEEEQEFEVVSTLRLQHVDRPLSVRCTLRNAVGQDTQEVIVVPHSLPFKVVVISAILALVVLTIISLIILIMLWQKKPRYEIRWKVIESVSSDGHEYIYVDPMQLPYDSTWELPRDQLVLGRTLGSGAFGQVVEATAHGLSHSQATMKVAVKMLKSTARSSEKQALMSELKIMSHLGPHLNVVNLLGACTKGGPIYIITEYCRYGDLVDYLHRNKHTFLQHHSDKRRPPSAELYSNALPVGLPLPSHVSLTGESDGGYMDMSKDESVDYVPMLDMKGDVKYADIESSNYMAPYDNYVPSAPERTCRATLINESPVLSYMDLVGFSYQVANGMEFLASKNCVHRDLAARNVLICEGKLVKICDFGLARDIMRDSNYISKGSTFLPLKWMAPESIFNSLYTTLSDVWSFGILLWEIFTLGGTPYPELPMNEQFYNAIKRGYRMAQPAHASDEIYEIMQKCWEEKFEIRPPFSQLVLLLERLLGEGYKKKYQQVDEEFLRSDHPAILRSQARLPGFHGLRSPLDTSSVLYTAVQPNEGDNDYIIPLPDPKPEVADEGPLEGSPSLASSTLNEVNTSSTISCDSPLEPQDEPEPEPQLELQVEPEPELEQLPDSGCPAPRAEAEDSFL
A further assay concerns the target Albumin (Bos taurus, UniProt P02769). Kind of assay: Counterscreen for inhibitors of T-cell receptor (TCR)-CD3 interaction: Fluorescence-based biochemical high throughput dose response assay to identify inhibitors of T-cell receptor (TCR)-CD3 interaction using a TAMRA-labeled BSA probe. It counts as functional.
The target in assay [12] is Calcium/calmodulin-dependent protein kinase type II subunit gamma (Homo sapiens, UniProt Q13555). Type of assay: functional.
Chain of Calcium/calmodulin-dependent protein kinase type II subunit gamma (Q13555 whole entry): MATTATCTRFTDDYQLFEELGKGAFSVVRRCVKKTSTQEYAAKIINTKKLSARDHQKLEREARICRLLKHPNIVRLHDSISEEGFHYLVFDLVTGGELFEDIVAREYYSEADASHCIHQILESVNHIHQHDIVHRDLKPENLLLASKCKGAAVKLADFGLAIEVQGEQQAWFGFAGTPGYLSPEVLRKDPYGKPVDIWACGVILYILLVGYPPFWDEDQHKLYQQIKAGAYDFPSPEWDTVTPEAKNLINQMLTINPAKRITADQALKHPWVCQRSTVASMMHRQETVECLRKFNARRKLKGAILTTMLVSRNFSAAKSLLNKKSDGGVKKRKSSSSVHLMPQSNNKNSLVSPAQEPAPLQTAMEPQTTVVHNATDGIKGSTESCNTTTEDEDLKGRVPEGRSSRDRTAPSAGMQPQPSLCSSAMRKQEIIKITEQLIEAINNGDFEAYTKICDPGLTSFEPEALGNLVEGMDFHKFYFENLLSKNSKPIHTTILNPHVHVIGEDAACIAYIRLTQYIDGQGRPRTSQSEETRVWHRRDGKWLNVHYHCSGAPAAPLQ
Assay [13] concerns the target Calcium/calmodulin-dependent protein kinase type II subunit beta (Homo sapiens, UniProt Q13554). It counts as functional.
The target in assay [14] is Interleukin-1 receptor-associated kinase 4 (Homo sapiens, UniProt Q9NWZ3). Type of assay: functional.
Chain of Interleukin-1 receptor-associated kinase 4 (Q9NWZ3 whole entry): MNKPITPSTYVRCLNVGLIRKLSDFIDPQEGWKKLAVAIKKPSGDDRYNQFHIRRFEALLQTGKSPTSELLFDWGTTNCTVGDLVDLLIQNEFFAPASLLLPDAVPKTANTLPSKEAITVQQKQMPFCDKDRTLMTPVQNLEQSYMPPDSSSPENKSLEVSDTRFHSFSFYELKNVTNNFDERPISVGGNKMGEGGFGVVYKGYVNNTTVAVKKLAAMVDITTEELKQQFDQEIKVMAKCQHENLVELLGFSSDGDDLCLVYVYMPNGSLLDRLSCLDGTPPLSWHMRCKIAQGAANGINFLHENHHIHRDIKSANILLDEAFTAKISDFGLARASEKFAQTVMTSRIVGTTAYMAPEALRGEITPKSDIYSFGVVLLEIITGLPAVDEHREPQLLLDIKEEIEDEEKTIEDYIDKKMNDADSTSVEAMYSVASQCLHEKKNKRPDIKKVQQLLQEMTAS
Assay [15] deals with Serine/threonine-protein kinase 17A (Homo sapiens, UniProt Q9UEE5). It counts as functional.
Chain of Serine/threonine-protein kinase 17A (Q9UEE5 whole entry): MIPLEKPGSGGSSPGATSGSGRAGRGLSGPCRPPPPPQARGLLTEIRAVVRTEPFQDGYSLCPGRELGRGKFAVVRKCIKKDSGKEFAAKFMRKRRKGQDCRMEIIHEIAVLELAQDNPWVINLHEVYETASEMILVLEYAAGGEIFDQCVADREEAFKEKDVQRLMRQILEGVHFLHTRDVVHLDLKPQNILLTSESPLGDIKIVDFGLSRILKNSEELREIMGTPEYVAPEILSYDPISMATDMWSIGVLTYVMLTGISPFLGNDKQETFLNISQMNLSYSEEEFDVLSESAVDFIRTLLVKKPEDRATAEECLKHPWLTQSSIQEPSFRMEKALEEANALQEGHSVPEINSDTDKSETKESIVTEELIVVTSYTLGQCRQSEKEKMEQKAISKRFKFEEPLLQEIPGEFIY
For assay [16], the target named is Serine/threonine-protein kinase SIK2 (Homo sapiens, UniProt Q9H0K1). Kind of assay: Navigating the Kinome. Panel member name: SIK2. Type of assay: functional.
For assay [17], the target named is Serine/threonine-protein kinase pim-3 (Homo sapiens, UniProt Q86V86). It counts as functional.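 Also: value obtained as one member of a broad kinase panel profiling effort.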
Assay [18] deals with Casein kinase I isoform gamma-1 (Homo sapiens, UniProt Q9HCP0). It counts as functional.
The target in the next assay is Insulin receptor (Homo sapiens, UniProt P06213). Type of assay: functional.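 Also: insulin receptor kinase tested as one member of a kinome-wide kinase panel.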
The target of assay [19] is MAP kinase-activated protein kinase 5 (Homo sapiens, UniProt Q8IW41). It counts as functional.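 Also: measured as one member of a kinome panel.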
Assay [20] concerns the target MAP/microtubule affinity-regulating kinase 4 (Homo sapiens, UniProt Q96L34). As to the kind of experiment: Navigating the Kinome. Panel member name: MARK4. Type of assay: functional.
The target of assay [21] is MAP kinase-activated protein kinase 2 (Homo sapiens, UniProt P49137). Type of assay: functional.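 Also: measured as one member of a kinome-wide kinase panel.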
Assay [22] deals with Mitogen-activated protein kinase kinase kinase 10 (Homo sapiens, UniProt Q02779). Kind of assay: Navigating the Kinome. Panel member name: MAP3K10. It counts as functional.
The target of assay [23] is Casein kinase II subunit alpha (Homo sapiens, UniProt P68400). Type of assay: functional.
Chain of Casein kinase II subunit alpha (P68400 whole entry): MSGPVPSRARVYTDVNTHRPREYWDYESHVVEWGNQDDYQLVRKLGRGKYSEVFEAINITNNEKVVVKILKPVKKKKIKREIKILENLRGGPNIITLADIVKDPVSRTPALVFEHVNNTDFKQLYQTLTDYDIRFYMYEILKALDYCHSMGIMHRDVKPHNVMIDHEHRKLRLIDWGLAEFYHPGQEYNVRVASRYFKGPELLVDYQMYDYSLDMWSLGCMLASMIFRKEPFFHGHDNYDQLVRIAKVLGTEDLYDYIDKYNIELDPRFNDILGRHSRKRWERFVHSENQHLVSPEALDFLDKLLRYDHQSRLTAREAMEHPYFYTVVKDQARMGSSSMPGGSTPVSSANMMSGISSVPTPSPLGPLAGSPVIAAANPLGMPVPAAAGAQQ

SMILES strings stand for the structures. Calls of active or inactive are those of the source.
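For AC50 in this document: cells exposed to compound for roughly 70 hours or longer before luminescence read.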

Chain of Albumin (P02769 whole entry): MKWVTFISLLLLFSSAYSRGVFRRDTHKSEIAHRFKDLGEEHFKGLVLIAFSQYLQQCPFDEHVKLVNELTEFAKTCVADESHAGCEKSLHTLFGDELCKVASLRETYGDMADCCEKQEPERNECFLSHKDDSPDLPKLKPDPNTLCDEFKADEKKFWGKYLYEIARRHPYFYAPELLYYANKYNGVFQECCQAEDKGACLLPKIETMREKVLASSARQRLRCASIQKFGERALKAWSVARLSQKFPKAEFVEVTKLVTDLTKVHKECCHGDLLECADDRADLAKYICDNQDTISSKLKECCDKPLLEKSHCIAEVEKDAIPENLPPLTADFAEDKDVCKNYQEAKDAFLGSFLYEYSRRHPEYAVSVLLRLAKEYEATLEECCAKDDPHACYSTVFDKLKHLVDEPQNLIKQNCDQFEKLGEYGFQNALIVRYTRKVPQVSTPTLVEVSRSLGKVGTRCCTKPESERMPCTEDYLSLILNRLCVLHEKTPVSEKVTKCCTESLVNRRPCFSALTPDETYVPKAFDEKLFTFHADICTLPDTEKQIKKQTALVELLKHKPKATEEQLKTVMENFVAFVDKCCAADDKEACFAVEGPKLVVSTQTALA
Chain of Calcium/calmodulin-dependent protein kinase type II subunit beta (Q13554 whole entry): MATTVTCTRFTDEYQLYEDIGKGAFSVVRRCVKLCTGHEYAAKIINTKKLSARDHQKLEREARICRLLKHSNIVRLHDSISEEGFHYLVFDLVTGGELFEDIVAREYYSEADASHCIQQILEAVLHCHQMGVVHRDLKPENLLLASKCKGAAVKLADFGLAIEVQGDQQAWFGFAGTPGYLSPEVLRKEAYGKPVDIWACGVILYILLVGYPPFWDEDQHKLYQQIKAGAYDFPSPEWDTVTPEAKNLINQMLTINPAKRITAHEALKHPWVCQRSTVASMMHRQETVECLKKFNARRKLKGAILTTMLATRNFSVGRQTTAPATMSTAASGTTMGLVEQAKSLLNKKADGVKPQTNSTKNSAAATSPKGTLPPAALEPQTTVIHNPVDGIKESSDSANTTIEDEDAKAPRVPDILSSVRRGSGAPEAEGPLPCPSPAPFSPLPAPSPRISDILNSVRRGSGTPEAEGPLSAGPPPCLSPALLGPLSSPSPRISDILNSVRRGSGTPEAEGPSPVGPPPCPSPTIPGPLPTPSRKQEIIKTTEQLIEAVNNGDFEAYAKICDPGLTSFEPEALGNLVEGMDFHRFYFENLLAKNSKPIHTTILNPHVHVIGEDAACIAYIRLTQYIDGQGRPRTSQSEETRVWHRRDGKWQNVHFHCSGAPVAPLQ
Chain of Glutathione-S-transferase (Q26513 whole entry): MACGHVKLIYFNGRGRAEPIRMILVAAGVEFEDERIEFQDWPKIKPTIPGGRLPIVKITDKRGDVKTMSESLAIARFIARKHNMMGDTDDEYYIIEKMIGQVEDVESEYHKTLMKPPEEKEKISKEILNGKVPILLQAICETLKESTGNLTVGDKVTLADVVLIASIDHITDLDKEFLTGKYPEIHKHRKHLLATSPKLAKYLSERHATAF

On to `O=C1/C(=C\c2cccc(O)c2O)SC(=S)N1Cc1ccccc1`, for which, in assay [1], the AC50 was 1.67 µM (active). For the same molecule, in [2], the IC50 is > 100 µM (inactive).
Regarding `COc1cccc2c1NC(C(=O)O)C1CC=CC21` (stereo unspecified), the IC50 is 42.5 µM (active) at Large T antigen, > 100 µM (active) in assay [3], 14 µM (active) in assay [4] and 13.1 µM (active) in assay [5]. Also, the EC50 in [6] is 8.25 µM (active).
`COc1c(-c2nc3ccccc3[nH]2)c(O)cc2oc(C)cc(=O)c12`: the Ki in assay [7] was 1.58 µM (active); in assay [8], 1.58 µM (active); in assay [9], > 6.31 µM (inactive); in assay [10], 0.501 µM (active).
As to `COC(=O)c1c(N)nc2ccccn12`, the Ki in assay [11] is > 79.4 µM (inactive).
`Cc1cc([N+](=O)[O-])cc(/C=N\NC(=O)C2COc3ccccc3O2)c1O` (stereo unspecified): the IC50 on Albumin was > 94.2 µM (inactive).
As to `Cc1ccc(F)c(NC(=O)Nc2ccc(-c3cccc4[nH]nc(N)c34)cc2)c1` [LINIFANIB], the Ki in [12] is 3.98 µM (active); in assay [13], 3.98 µM (active); in [14] it was 2.51 µM (active); in [15] it was > 3.98 µM (inactive); in assay [16], > 3.98 µM (inactive); in [17] it was > 7.94 µM (inactive). The Ki was 5.01 µM (active) in [18]; 0.794 µM (active) on Insulin receptor; > 1.58 µM (inactive) in assay [19]; > 5.01 µM (inactive) in assay [20]; > 7.94 µM (inactive) in assay [21]; > 3.16 µM (inactive) in [22]. Moreover, the inhibition constant Ki in [23] was 5.01 µM (active).
